# Assay results taken from PubChem BioAssay AID2060496 (Molecular Pharmacology Branch, DTP, NCI, 2025).
# Tested on: 276233-004-R-J1-PDC complex spheroid viability
# Experiment: Anticancer human tumor 276233-004-R-J1-PDC patient-derived colon adenocarcinoma cell line growth inhibition [GQUAD]
# Conditions: for IC50: curve of first compound; for viability, T/C: stronger effect = lower value
# Description: DNA G-quadruplex Stabilizer Agents in Combinations in Complex Spheroids
# A high-throughput screen of multi-cell type tumor spheroids was designed to identify active combinations of DNA G-quadruplex stabilizer agents and targeted small molecules. Complex spheroids include a stromal component modeled by human endothelial cells (HUVEC) and fibroblasts modeled by human mesenchymal stem cells (MSCs). The concentration ranges selected for each drug and investigational agent were based upon clinically achievable concentrations if the clinical Cmax of the agent was known.
# Compounds. The drugs and investigational agents: pidnarulex (CX-5461; NSC782164), APTO-253 (NSC789042), BRACO-19 (NSC847499), peposertib (NSC802822), ceralasertib (NSC780249), elimusertib (NSC800525), camonsertib (NSC841442), AZD-1390 (NSC803789), olaparib (NSC753686), talazoparib (NSC767125), ART-558 (NSC835418), sotorasib (NSC818433), MRTX-1133 (NSC836407), SN-38 (NSC673596), topotecan (NSC609699), etoposide (NSC141540), doxorubicin (NSC123127), gemcitabine (NSC613327), 5-fluorouracil (NSC19893), paclitaxel (NSC125973), vemurafenib (NSC761431), panobinostat (NSC761190), R-306465 (JNJ-16241199; NSC773264), adavosertib (NSC754352), TP-3654 (NSC805149), carboplatin (NSC241240), KSQ-4279 (NSC840948), and staurosporine (NSC755774) were obtained from the National Cancer Institute (NCI) Developmental Therapeutics Program Chemical Repository (34). The FDA-approved anticancer drug set is available from the NCI Developmental Therapeutics Program. […] The stock solutions were prepared in dimethyl sulfoxide (DMSO, Sigma-Aldrich, St. Louis, MO, cat. D2650) at 800-fold the tested concentration and stored at -70 degrees C prior to their use. All drugs and investigational agents were tested over a range starting from a high concentration at or near the clinical Cmax and decreasing in half-log increments. If the clinical Cmax for an agent had not been determined, the highest concentration tested was 10 microM.
# 2.3 Cell Culture. All cells were maintained in an incubator at 37 degrees C and 5% CO2 with 95% humidity. The PDC lines were cultured according to standard operating procedures established by the NCI PDMR. All PDCs were thawed and cultured in Matrigel-coated flasks prepared with a working solution of 1X Ham's F-12 nutrient mix, without supplementation (Invitrogen, cat. 11765054), 100 U/mL penicillin-streptomycin (Invitrogen, cat. 15140122), and 2.5% Matrigel (Corning Inc., cat. 354248) for the first three passages. The 857933-349-R-J2-PDC line was cultured in 6C/Colon 1B media, which includes advanced DMEM/F-12 (Thermo Fisher Scientific, cat. 12634028), 10 mM HEPES (Thermo Fisher Scientific, cat. 15630080), 1X GlutaMAX supplement (Thermo Fisher Scientific, cat. 35050061), 0.1 mg/mL primocin (InvivoGen, cat. ant-pm-2), 10% defined fetal bovine serum, heat inactivated (HyClone Laboratories Inc., cat. SH30070.03HI), 50% L-WRN conditioned media (ATCC, cat. CRL-3276), 1.25 mM N-Acetyl-L-cysteine (Sigma-Aldrich, cat. A9165), 10 mM nicotinamide (Sigma-Aldrich, cat. N0636), 1X B-27 supplement (Thermo Fisher Scientific, cat. 17504044), 1X N-2 supplement (Thermo Fisher Scientific, cat. 17502048), 10 microM Y-27632 dihydrochloride (Tocris Bioscience, cat. 1254), and 50 ng/mL human EGF recombinant protein (Thermo Fisher Scientific, cat. PHG0311). The 485176-168-R4-J1-PDC line was cultured in Panc media, which includes all 6C/Colon 1B media components plus 100 ng/mL human FGF-10 (Thermo Fisher Scientific, cat. 100-26), 500 nM SB-431542 (Selleckchem, cat. S1067), and gastrin (Tocris, cat. 3006).
# […]
# [1] = second compound 0.0316 µM, first compound 0.0316 µM
# [2] = second compound 0.0316 µM, first compound 0.1 µM
# [3] = second compound 0.0316 µM, first compound 0.316 µM
# [4] = second compound 0.0316 µM, first compound 1 µM
# [5] = second compound 0.0316 µM, first compound 3.16 µM
# [6] = second compound 0.0316 µM, first compound 10 µM
# [7] = second compound 0.1 µM, first compound 0.0316 µM
# [8] = second compound 0.1 µM, first compound 0.1 µM
# [9] = second compound 0.1 µM, first compound 0.316 µM
# [10] = second compound 0.1 µM, first compound 1 µM
# [11] = second compound 0.1 µM, first compound 3.16 µM
# [12] = second compound 0.1 µM, first compound 10 µM
# [13] = second compound 0.316 µM, first compound 0.0316 µM
# [14] = second compound 0.316 µM, first compound 0.1 µM
# [15] = second compound 0.316 µM, first compound 0.316 µM
# [16] = second compound 0.316 µM, first compound 1 µM
# [17] = second compound 0.316 µM, first compound 3.16 µM
# [18] = second compound 0.316 µM, first compound 10 µM
# [19] = second compound 1 µM, first compound 0.0316 µM
# [20] = second compound 1 µM, first compound 0.1 µM
# [21] = second compound 1 µM, first compound 0.316 µM
# [22] = second compound 1 µM, first compound 1 µM
# [23] = second compound 1 µM, first compound 3.16 µM
# [24] = second compound 1 µM, first compound 10 µM
# [25] = second compound 3.16 µM, first compound 0.0316 µM
# [26] = second compound 3.16 µM, first compound 0.1 µM
# [27] = second compound 3.16 µM, first compound 0.316 µM
# [28] = second compound 3.16 µM, first compound 1 µM
# [29] = second compound 3.16 µM, first compound 3.16 µM
# [30] = second compound 3.16 µM, first compound 10 µM
# [31] = second compound 10 µM, first compound 0.0316 µM
# [32] = second compound 10 µM, first compound 0.1 µM
# [33] = second compound 10 µM, first compound 0.316 µM
# [34] = second compound 10 µM, first compound 1 µM
# [35] = second compound 10 µM, first compound 3.16 µM
# [36] = second compound 10 µM, first compound 10 µM
# 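Note: spheroids exposed to drugs for seven days.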
# 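Throughout, for viability, T/C: 100% = DMSO vehicle control viability.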
smiles,measurement,setting,value
CC1COCCN1c1cc(C2(O)CC3CCC(C2)O3)c2cnn(-c3ccn[nH]3)c2n1 (centres undefined) + Cc1[nH]c2ccc(F)cc2c1-c1nc2c3cccnc3c3ncccc3c2[nH]1,IC50,second compound 0.0316 µM,> 10000 nM
same,IC50,second compound 0.1 µM,3110 nM
same,IC50,second compound 0.316 µM,2610 nM
same,IC50,second compound 1 µM,665 nM
same,IC50,second compound 3.16 µM,71.2 nM
same,IC50,second compound 10 µM,< 31.6 nM
same,"viability, T/C",[1],91%
same,"viability, T/C",[2],68%
same,"viability, T/C",[3],79%
same,"viability, T/C",[4],72.5%
same,"viability, T/C",[5],55.6%
same,"viability, T/C",[6],51%
same,"viability, T/C",[7],74.6%
same,"viability, T/C",[8],87%
same,"viability, T/C",[9],74.8%
same,"viability, T/C",[10],60.4%
same,"viability, T/C",[11],52.8%
same,"viability, T/C",[12],44.5%
same,"viability, T/C",[13],87.2%
same,"viability, T/C",[14],76.1%
same,"viability, T/C",[15],57.4%
same,"viability, T/C",[16],62.7%
same,"viability, T/C",[17],54%
same,"viability, T/C",[18],36%
same,"viability, T/C",[19],60.4%
same,"viability, T/C",[20],70%
same,"viability, T/C",[21],65.6%
same,"viability, T/C",[22],41.7%
same,"viability, T/C",[23],39.6%
same,"viability, T/C",[24],27.9%
same,"viability, T/C",[25],51.4%
same,"viability, T/C",[26],50.9%
same,"viability, T/C",[27],43.2%
same,"viability, T/C",[28],36%
same,"viability, T/C",[29],33.2%
same,"viability, T/C",[30],26.2%
same,"viability, T/C",[31],46.3%
same,"viability, T/C",[32],44.3%
same,"viability, T/C",[33],42.5%
same,"viability, T/C",[34],35.9%
same,"viability, T/C",[35],26.7%
same,"viability, T/C",[36],21.6%
COc1ccc([C@@H](O)c2cc(-c3ncnc4cc(N5CCOCC5)ccc34)c(F)cc2Cl)nn1 + Cc1[nH]c2ccc(F)cc2c1-c1nc2c3cccnc3c3ncccc3c2[nH]1,IC50,second compound 0.0316 µM,> 10000 nM
same,IC50,second compound 0.1 µM,> 10000 nM
same,IC50,second compound 0.316 µM,> 10000 nM
same,IC50,second compound 1 µM,5020 nM
same,IC50,second compound 3.16 µM,424 nM
same,IC50,second compound 10 µM,352 nM
same,"viability, T/C",[1],89.6%
same,"viability, T/C",[2],77.9%
same,"viability, T/C",[3],97.2%
same,"viability, T/C",[4],72.6%
same,"viability, T/C",[5],72.6%
same,"viability, T/C",[6],68.7%
same,"viability, T/C",[7],88.3%
same,"viability, T/C",[8],79.6%
same,"viability, T/C",[9],70.5%
same,"viability, T/C",[10],74%
same,"viability, T/C",[11],72.7%
same,"viability, T/C",[12],65.7%
same,"viability, T/C",[13],87.8%
same,"viability, T/C",[14],79.4%
same,"viability, T/C",[15],96%
same,"viability, T/C",[16],80.9%
same,"viability, T/C",[17],70.9%
same,"viability, T/C",[18],61.2%
same,"viability, T/C",[19],61.1%
same,"viability, T/C",[20],70.1%
same,"viability, T/C",[21],67%
same,"viability, T/C",[22],62.2%
same,"viability, T/C",[23],50.4%
same,"viability, T/C",[24],44.5%
same,"viability, T/C",[25],59%
same,"viability, T/C",[26],51.7%
same,"viability, T/C",[27],51.1%
same,"viability, T/C",[28],49.1%
same,"viability, T/C",[29],33.3%
same,"viability, T/C",[30],24.1%
same,"viability, T/C",[31],53.4%
same,"viability, T/C",[32],48%
same,"viability, T/C",[33],53%
same,"viability, T/C",[34],41.5%
same,"viability, T/C",[35],29%
same,"viability, T/C",[36],25.6%
